Results as given in article PMC9934367, “Functional impact of subunit composition and compensation on Drosophila melanogaster nicotinic receptors–targets of neonicotinoids” (PLOS Genetics, 2023).
Read-outs that look alike come from different tables or passages of the source.

How the values were obtained:
Dα3/Dβ1 nAChR = molecular target: T1, Dα3/Dβ1 nAChR (Drosophila melanogaster, UniProt P04755+Q9W3G6); assay: cell-based; assay type: cell-based, D. melanogaster; conditions: Dα3/Dβ1 nAChR, mean ± standard error (n = 5)
T1 construct: Dβ1 (NP_523927); expressed in transfected cells; host or cells: Xenopus laevis oocytes (cRNA injection)
Method: (§1) cDNAs of the nAChR subunits and co-factors were cloned into pcDNA3.1 (+) vector (Thermo Fisher Scientific). The accession numbers of the nAChR subunits and cofactors are as follows: Dα1 (NP_524481), Dα2 (NP_524482), Dα3 (NP_525079), Dα4 (CAB77445), Dβ1 (NP_523927), Dβ2 (NP_524483), Dβ3 (NP_525098), DmRIC-3 (CAP16647), DmUNC-50 (NP_649813), and DmTMX3 (NP_648847). cRNAs were prepared using the mMESSAGE mMACHINE T7 ULTRA Transcription Kit (Thermo Fisher Scientific, #AM1345) according to the manual with the cDNA template which was cut with appropriate restriction enzymes at the 3’ end of the cDNA.
(§2) We minimised the use of X. laevis according to the UK Animals (Scientific Procedures) Act, 1986. […] Oocytes were defolliculated after collagenase treatment in Ca^2+-free standard oocyte saline (Ca^2+-free SOS). cRNAs of the nAChR subunits and co-factors mixed at a concentration of 0.1 mg/mL was injected into oocytes at a volume of 50 nL. Then the oocytes were incubated in the incubation medium (SOS supplemented with sodium pyruvate (Nacalai Tesque, #13058–12), penicillin-streptomycin (MilliporeSigma, #P4333), gentamycin (Nacalai Tesque, #16672–04), and 4% horse serum (Thermo Fisher Scientific, #26050–070) for 3−4 days prior to electrophysiology.
(§3) Each defolliculated X. laevis oocyte was secured in a Perspex recording chamber and perfused with the standard oocyte saline (SOS) containing 0.5 μM atropine (SOSA) at a flow rate of 7−10 mL/min [48]. Two glass electrodes filled with 2 M KCl were impaled into each oocyte and the membrane potential was clamped at -100 mV. […] The peak amplitude of the response was measured and analysed by pCLAMP (Molecular Devices, USA).
(§4) Y=Imax/1+10^(logEC50‐X)nH
(§5) Where Y is the normalised response, X is log[ligand (M)], EC50 is the half maximal concentration (M), Imax is the maximum normalised response and nH is the Hill coefficient.

Dα1/Dα2/Dα3/Dβ1 nAChR = molecular target: T2, Dα1/Dα2/Dα3/Dβ1 nAChR (Drosophila melanogaster, UniProt P04755+P09478+P17644+Q9W3G6); assay: cell-based; parameters: species or system D. melanogaster; conditions: mean ± standard error (n = 5)
T2 construct: Dα1 (NP_524481); Dα2 (NP_524482); Dβ1 (NP_523927); expressed in transfected cells; host or cells: Xenopus laevis oocytes (cRNA injection)
Method: as §1, §2, §3, §4, §5

Dα1/Dα3/Dβ1 nAChR = molecular target: T3, Dα1/Dα3/Dβ1 nAChR (Drosophila melanogaster, UniProt P04755+P09478+Q9W3G6); assay: cell-based; parameters: species or system D. melanogaster
T3 construct: Dα1 (NP_524481); Dβ1 (NP_523927); expressed in transfected cells; host or cells: Xenopus laevis oocytes (cRNA injection)
Method: as §1, §2, §3, §4, §5

Dα1/Dα3/Dβ1/Dβ2 nAChR = molecular target: T4, Dα1/Dα3/Dβ1/Dβ2 nAChR (Drosophila melanogaster, UniProt P04755+P09478+P25162+Q9W3G6); assay: cell-based; parameters: species or system D. melanogaster; conditions: mean ± standard error (n = 5)
T4 construct: Dα1 (NP_524481); Dβ1 (NP_523927); Dβ2 (NP_524483); expressed in transfected cells; host or cells: Xenopus laevis oocytes (cRNA injection)
Method: as §1, §2, §3, §4, §5

D. melanogaster larvae = assay: Pupariation rate assay; assay type: in vivo
Method: All flies were raised at 25°C under 12 h/12 h light/dark cycle. The animals were reared on standard fly food containing 5.5 g agar, 100 g glucose, 40 g dry yeast, 90 g cornflour, 3 mL propionic acid, and 3.5 mL 10% butyl p-hydroxybenzoate (Nacalai Tesque, Japan, #06327–15) in 70% ethanol per liter. The control strain was w^1118, and transgenic flies are as follows: UAS-nAChRα1 RNAi (#28688) was obtained from the Bloomington Drosophila Stock Center (BDSC); UAS-nAChRα2 RNAi (UAS-Dα2 RNAi, #10760), UAS-nAChRα3 RNAi (UAS-Dα3 RNAi, #101806); UAS-dicer2 (#60009) were obtained from the Vienna Drosophila Resource Center (VDRC); and UAS-mCD8::GFP (#108068) was obtained from Kyoto Stock Center. elav-Gal4 (3A3) was obtained from Michael B. O’Connor. nAChRα3-knock-in 2A-Gal4 (Dα3-knock-in T2A-Gal4) was generated by the CRISPR/Cas9 system as described in detail below.
Eggs were laid on grape juice plates with yeast paste at 25°C for 6 h. […] After a week of incubation at 25°C, pupal numbers were scored in each vial.

[1] = normalised to maximum ACh response
[2] = efficacy, mean ± standard error (n = 5)
[3] = normalised to maximum ACh response, mean ± standard error (n = 5)
[4] = RNAi of Dα1 (pan-neuronal knockdown) vs control
[5] = RNAi of Dα2 (pan-neuronal knockdown) vs control
[6] = mean ± standard error (n = 5), read-out: pEC50 (converted)

Question: Which EC50 (Dα3/Dβ1 nAChR) does the source give for N#C/N=C1\SCCN1Cc1ccc(Cl)nc1 [Thiacloprid, thiacloprid] here?
Answer: 15.8 nM

Question: What about the Imax (Dα3/Dβ1 nAChR; [1]) of the same molecule?
Answer: 0.016 ± 0.001

Question: What about the Imax (Dα3/Dβ1 nAChR; efficacy) of the same molecule?
Answer: 0.016

Question: And the Imax (Dα1/Dα2/Dα3/Dβ1 nAChR; efficacy)?
Answer: 0.047

Question: What about the EC50 (Dα1/Dα2/Dα3/Dβ1 nAChR) of the same molecule?
Answer: 18.6 nM

Question: What about the Imax (Dα1/Dα2/Dα3/Dβ1 nAChR; [1]) of the same molecule?
Answer: 0.047 ± 0.004

Question: And the Imax (Dα1/Dα3/Dβ1 nAChR; [2])?
Answer: 0.047

Question: What about the Imax (Dα1/Dα3/Dβ1 nAChR; [3]) of the same molecule?
Answer: 0.047 ± 0.006

Question: And the EC50 (Dα1/Dα3/Dβ1 nAChR; read-out: EC50)?
Answer: 8.51 nM

Question: And the Imax (Dα1/Dα3/Dβ1/Dβ2 nAChR; efficacy)?
Answer: 0.107

Question: And the EC50 (Dα1/Dα3/Dβ1/Dβ2 nAChR)?
Answer: 10 nM

Question: What about the Imax (Dα1/Dα3/Dβ1/Dβ2 nAChR; [1]) of the same molecule?
Answer: 0.107 ± 0.015

Question: What about the “toxicity in larvae, effect of RNAi” value (D. melanogaster larvae; [4]) of the same molecule?
Answer: reduced toxicity

Question: What about the “toxicity in larvae, effect of RNAi” value (D. melanogaster larvae; [5]) of the same molecule?
Answer: reduced toxicity

Question: With CC(=O)OCC[N+](C)(C)C [ACh, acetylcholine] as the molecule, how does the Imax (Dα3/Dβ1 nAChR; efficacy) read?
Answer: 1

Question: And the Imax (Dα1/Dα2/Dα3/Dβ1 nAChR; efficacy)?
Answer: 1

Question: And the Imax (Dα1/Dα3/Dβ1 nAChR; [2])?
Answer: 1

Question: And the Imax (Dα1/Dα3/Dβ1/Dβ2 nAChR; efficacy)?
Answer: 1

Question: How did the EC50 (Dα3/Dβ1 nAChR) turn out when CN/C(=N\[N+](=O)[O-])NCc1cnc(Cl)s1 [Clothianidin, clothianidin] was run?
Answer: 28.8 nM

Question: What about the Imax (Dα3/Dβ1 nAChR; [1]) of the same molecule?
Answer: 0.691 ± 0.013

Question: And the Imax (Dα3/Dβ1 nAChR; efficacy)?
Answer: 0.691

Question: And the Imax (Dα1/Dα2/Dα3/Dβ1 nAChR; efficacy)?
Answer: 0.817

Question: And the EC50 (Dα1/Dα2/Dα3/Dβ1 nAChR)?
Answer: 282 nM

Question: And the Imax (Dα1/Dα2/Dα3/Dβ1 nAChR; [1])?
Answer: 0.817 ± 0.024

Question: What about the Imax (Dα1/Dα3/Dβ1 nAChR; [2]) of the same molecule?
Answer: 0.627

Question: What about the EC50 (Dα1/Dα3/Dβ1 nAChR; [6]) of the same molecule?
Answer: 63.1 nM

Question: And the Imax (Dα1/Dα3/Dβ1 nAChR; [3])?
Answer: 0.627 ± 0.025

Question: What about the Imax (Dα1/Dα3/Dβ1/Dβ2 nAChR; efficacy) of the same molecule?
Answer: 0.684

Question: What about the EC50 (Dα1/Dα3/Dβ1/Dβ2 nAChR) of the same molecule?
Answer: 39.8 nM

Question: And the Imax (Dα1/Dα3/Dβ1/Dβ2 nAChR; [1])?
Answer: 0.684 ± 0.022

Question: What about the “toxicity in larvae, effect of RNAi” value (D. melanogaster larvae; [4]) of the same molecule?
Answer: reduced toxicity

Question: What about the “toxicity in larvae, effect of RNAi” value (D. melanogaster larvae; [5]) of the same molecule?
Answer: reduced toxicity

Question: What does the source list for O=[N+]([O-])NC1=NCCN1Cc1ccc(Cl)nc1 [Imidacloprid, imidacloprid]?
Answer: EC50 (Dα3/Dβ1 nAChR): 4.79 nM; Imax (Dα3/Dβ1 nAChR; [1]): 0.032 ± 0.003; Imax (Dα3/Dβ1 nAChR; efficacy): 0.032; Imax (Dα1/Dα2/Dα3/Dβ1 nAChR; efficacy): 0.094; EC50 (Dα1/Dα2/Dα3/Dβ1 nAChR): 83.2 nM; Imax (Dα1/Dα2/Dα3/Dβ1 nAChR; [1]): 0.094 ± 0.007; Imax (Dα1/Dα3/Dβ1 nAChR; [2]): 0.170; EC50 (Dα1/Dα3/Dβ1 nAChR; [6]): 26.3 nM; Imax (Dα1/Dα3/Dβ1 nAChR; [3]): 0.170 ± 0.020; Imax (Dα1/Dα3/Dβ1/Dβ2 nAChR; efficacy): 0.330; EC50 (Dα1/Dα3/Dβ1/Dβ2 nAChR): 30.2 nM; Imax (Dα1/Dα3/Dβ1/Dβ2 nAChR; [1]): 0.330 ± 0.018; toxicity in larvae, effect of RNAi (D. melanogaster larvae; [4]): reduced toxicity; toxicity in larvae, effect of RNAi (D. melanogaster larvae; [5]): reduced toxicity
